Source: ChEMBL document CHEMBL1201862, “PubChem BioAssay data set” (2004)
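Interpolation was linear, between the two tested concentrations surrounding the appropriate level; five concentrations were tested over 48 hours in 96-well plates. At the GI50, growth is halved.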 Activity calls are given as the source filed them. Rule as the data show it: active = GI50 up to about 1.1 µM and inactive = higher.

Assays:
Assay in all cases: DTP human tumour cell line panel, 48 h
786-0 = tested on: 786-0
A498 = tested on: A498
A549 = tested on: A549
ACHN = tested on: ACHN
CAKI-1 = tested on: CAKI-1
CCRF-CEM = tested on: CCRF-CEM
COLO 205 = tested on: COLO 205
DLD-1 = tested on: DLD-1
DMS-114 = tested on: DMS-114
DMS-273 = tested on: DMS-273
HCC 2998 = tested on: HCC 2998
HCT-116 = tested on: HCT-116
HCT-15 = tested on: HCT-15
HL-60 = tested on: HL-60
HOP-18 = tested on: HOP-18
HOP-62 = tested on: HOP-62
HOP-92 = tested on: HOP-92
HT-29 = tested on: HT-29
IGROV-1 = tested on: IGROV-1
K562 = tested on: K562
KM-20L2 = tested on: KM-20L2
KM12 = tested on: KM12
LOX IMVI = tested on: LOX IMVI
LXFL 529 = tested on: LXFL 529
M14 = tested on: M14
M19-MEL = tested on: M19-MEL
MOLT-4 = tested on: MOLT-4
Malme-3M = tested on: Malme-3M
NCI-H226 = tested on: NCI-H226
NCI-H23 = tested on: NCI-H23
NCI-H460 = tested on: NCI-H460
OVCAR-3 = tested on: OVCAR-3
OVCAR-4 = tested on: OVCAR-4
OVCAR-5 = tested on: OVCAR-5
OVCAR-8 = tested on: OVCAR-8
RPMI-8226 = tested on: RPMI-8226
RXF 393 = tested on: RXF 393
SF-268 = tested on: SF-268
SF-295 = tested on: SF-295
SF-539 = tested on: SF-539
SK-MEL-28 = tested on: SK-MEL-28
SK-MEL-5 = tested on: SK-MEL-5
SK-OV-3 = tested on: SK-OV-3
SN12C = tested on: SN12C
SNB-19 = tested on: SNB-19
SNB-75 = tested on: SNB-75
SNB-78 = tested on: SNB-78
SR = tested on: SR
SW-620 = tested on: SW-620
TK-10 = tested on: TK-10
U-251 = tested on: U-251
UACC-257 = tested on: UACC-257
UACC-62 = tested on: UACC-62
UO-31 = tested on: UO-31
XF498 = tested on: XF498
EKVX = tested on: EKVX
NCI-H522 = tested on: NCI-H522
SK-MEL-2 = tested on: SK-MEL-2
MCF7 = tested on: MCF7

CCN(CC)CC(=O)/C=C/c1ccc(C)cc1
GI50 (786-0): 17.6 µM (inactive)
GI50 (A498): 56 µM (inactive)
GI50 (A549): 27 µM (inactive)
GI50 (ACHN): 19.2 µM (inactive)
GI50 (CAKI-1): 17.8 µM (inactive)
GI50 (CCRF-CEM): 2.93 µM (inactive)
GI50 (COLO 205): 18.8 µM (inactive)
GI50 (DLD-1): 25.1 µM (inactive)
GI50 (DMS-114): 21.9 µM (inactive)
GI50 (DMS-273): 22.2 µM (inactive)
GI50 (HCC 2998): 17.9 µM (inactive)
GI50 (HCT-116): 17.5 µM (inactive)
GI50 (HCT-15): 18.9 µM
GI50 (HL-60): 20.2 µM (inactive)
GI50 (HOP-18): 23.2 µM (inactive)
GI50 (HOP-62): 34.1 µM (inactive)
GI50 (HOP-92): 30.1 µM (inactive)
GI50 (HT-29): 22.3 µM (inactive)
GI50 (IGROV-1): 20.8 µM (inactive)
GI50 (K562): 35.6 µM (inactive)
GI50 (KM-20L2): 20.6 µM (inactive)
GI50 (KM12): 17.5 µM (inactive)
GI50 (LOX IMVI): 18.5 µM (inactive)
GI50 (LXFL 529): 18.6 µM (inactive)
GI50 (M14): 17.4 µM (inactive)
GI50 (M19-MEL): 17.6 µM (inactive)
GI50 (MOLT-4): 31.9 µM (inactive)
GI50 (Malme-3M): 19.5 µM (inactive)
GI50 (NCI-H226): 22.1 µM (inactive)
GI50 (NCI-H23): 30.5 µM (inactive)
GI50 (NCI-H460): 20.6 µM (inactive)
GI50 (OVCAR-3): 19.9 µM (inactive)
GI50 (OVCAR-4): 15.8 µM (inactive)
GI50 (OVCAR-5): 42.3 µM (inactive)
GI50 (OVCAR-8): 20.1 µM (inactive)
GI50 (RPMI-8226): 34.6 µM (inactive)
GI50 (RXF 393): 24.3 µM (inactive)
GI50 (SF-268): 27.9 µM (inactive)
GI50 (SF-295): 32 µM (inactive)
GI50 (SF-539): 20.7 µM (inactive)
GI50 (SK-MEL-28): 23.8 µM (inactive)
GI50 (SK-MEL-5): 17.8 µM (inactive)
GI50 (SK-OV-3): 29.2 µM (inactive)
GI50 (SN12C): 17.6 µM (inactive)
GI50 (SNB-19): 15.1 µM (inactive)
GI50 (SNB-75): 24.3 µM (inactive)
GI50 (SNB-78): 51.8 µM (inactive)
GI50 (SR): 27.7 µM (inactive)
GI50 (SW-620): 16.2 µM (inactive)
GI50 (TK-10): 28.3 µM (inactive)
GI50 (U-251): 16.5 µM (inactive)
GI50 (UACC-257): 21.6 µM (inactive)
GI50 (UACC-62): 17.3 µM (inactive)
GI50 (UO-31): 20.1 µM (inactive)
GI50 (XF498): 31 µM (inactive)

O=C1Sc2ccccc2C(=O)N2CSCC12 (stereo unspecified)
GI50 (786-0): > 100 µM (inactive)
GI50 (A549): > 100 µM (inactive)
GI50 (ACHN): > 100 µM (inactive)
GI50 (CCRF-CEM): > 100 µM (inactive)
GI50 (COLO 205): > 100 µM (inactive)
GI50 (DLD-1): > 100 µM (inactive)
GI50 (DMS-114): > 100 µM (inactive)
GI50 (DMS-273): > 100 µM (inactive)
GI50 (EKVX): > 100 µM (inactive)
GI50 (HCC 2998): > 100 µM (inactive)
GI50 (HCT-116): > 100 µM (inactive)
GI50 (HL-60): > 100 µM (inactive)
GI50 (HOP-18): > 100 µM (inactive)
GI50 (HOP-62): > 100 µM (inactive)
GI50 (HOP-92): > 100 µM (inactive)
GI50 (HT-29): > 100 µM (inactive)
GI50 (IGROV-1): > 100 µM (inactive)
GI50 (K562): > 100 µM (inactive)
GI50 (KM-20L2): > 100 µM (inactive)
GI50 (KM12): > 100 µM (inactive)
GI50 (LOX IMVI): > 100 µM (inactive)
GI50 (LXFL 529): > 100 µM (inactive)
GI50 (M14): > 100 µM (inactive)
GI50 (M19-MEL): > 100 µM (inactive)
GI50 (MOLT-4): > 100 µM (inactive)
GI50 (Malme-3M): > 100 µM (inactive)
GI50 (NCI-H226): > 100 µM (inactive)
GI50 (NCI-H23): > 100 µM (inactive)
GI50 (NCI-H460): > 100 µM (inactive)
GI50 (NCI-H522): > 100 µM (inactive)
GI50 (OVCAR-3): > 100 µM (inactive)
GI50 (OVCAR-8): > 100 µM (inactive)
GI50 (RPMI-8226): > 100 µM (inactive)
GI50 (RXF 393): > 100 µM (inactive)
GI50 (SF-268): > 100 µM (inactive)
GI50 (SF-295): > 100 µM (inactive)
GI50 (SF-539): > 100 µM (inactive)
GI50 (SK-MEL-28): > 100 µM (inactive)
GI50 (SK-MEL-2): > 100 µM (inactive)
GI50 (SK-MEL-5): > 100 µM (inactive)
GI50 (SK-OV-3): > 100 µM (inactive)
GI50 (SN12C): > 100 µM (inactive)
GI50 (SNB-19): > 100 µM (inactive)
GI50 (SNB-75): > 100 µM (inactive)
GI50 (SNB-78): > 100 µM (inactive)
GI50 (SR): > 100 µM (inactive)
GI50 (SW-620): > 100 µM (inactive)
GI50 (TK-10): > 100 µM (inactive)
GI50 (U-251): > 100 µM (inactive)
GI50 (UACC-257): > 100 µM (inactive)
GI50 (UACC-62): > 100 µM (inactive)
GI50 (UO-31): > 100 µM (inactive)
GI50 (XF498): > 100 µM (inactive)

CC1[C@@]2(O[C@@H]3C=C4C5CCC6Cc7nc8c(nc7C[C@@]6(C)C5C[C@H](O)[C@@]4(C)[C@]13O)CC1CCc3c(cc4c5c3C(O)C[C@H]5[C@@H](C)C3(O4)OC(C)(C)CC3O)[C@]1(C)C8)O[C@@](C)(CO)C[C@@H]2O (stereo partly specified)
GI50 (A498): 0.129 µM (active)
GI50 (A549): 0.167 µM (active)
GI50 (CAKI-1): 0.659 µM (active)
GI50 (CCRF-CEM): 0.164 µM (active)
GI50 (COLO 205): 0.57 µM (active)
GI50 (DLD-1): 1.79 µM (inactive)
GI50 (DMS-114): 0.119 µM (active)
GI50 (DMS-273): 0.0504 µM (active)
GI50 (EKVX): 0.146 µM (active)
GI50 (HCC 2998): 1.91 µM (inactive)
GI50 (HCT-116): 0.558 µM (active)
GI50 (HCT-15): 0.914 µM
GI50 (HL-60): 0.191 µM (active)
GI50 (HOP-18): 1.92 µM (inactive)
GI50 (HOP-62): 0.102 µM (active)
GI50 (HT-29): 0.402 µM (active)
GI50 (IGROV-1): 0.345 µM (active)
GI50 (K562): 0.259 µM (active)
GI50 (KM-20L2): 0.37 µM (active)
GI50 (KM12): 1.29 µM (inactive)
GI50 (LOX IMVI): 0.23 µM (active)
GI50 (M19-MEL): 2.28 µM (inactive)
GI50 (MCF7): 0.21 µM (active)
GI50 (Malme-3M): 0.22 µM (active)
GI50 (NCI-H226): 0.185 µM (active)
GI50 (NCI-H460): 0.126 µM (active)
GI50 (NCI-H522): 0.745 µM (active)
GI50 (OVCAR-3): 1.32 µM (inactive)
GI50 (OVCAR-5): 0.618 µM (active)
GI50 (OVCAR-8): 3.24 µM (inactive)
GI50 (RPMI-8226): 0.0604 µM (active)
GI50 (RXF 393): 0.0418 µM (active)
GI50 (SF-268): 0.191 µM (active)
GI50 (SF-295): 0.06 µM (active)
GI50 (SF-539): 0.173 µM (active)
GI50 (SK-MEL-2): 0.436 µM (active)
GI50 (SK-MEL-5): 0.303 µM (active)
GI50 (SK-OV-3): 0.187 µM (active)
GI50 (SN12C): 2.3 µM (inactive)
GI50 (SNB-19): 1.38 µM (inactive)
GI50 (SNB-75): 0.0182 µM (active)
GI50 (SNB-78): 0.183 µM (active)
GI50 (SW-620): 0.49 µM (active)
GI50 (U-251): 0.0759 µM (active)
GI50 (UACC-257): 1.3 µM (inactive)
GI50 (UACC-62): 0.169 µM (active)
GI50 (UO-31): 1.39 µM (inactive)
GI50 (XF498): 0.0162 µM (active)
